{"source": "patent US11633392B2", "about": "(priority 2016, dated 2023)", "key": {"[1]": {"molecular_target": "T1, human opioid μ receptor (Homo sapiens, UniProt P35372)", "T1 construct": "host or cells: CHO cells", "T1 sequence (P35372 whole entry)": "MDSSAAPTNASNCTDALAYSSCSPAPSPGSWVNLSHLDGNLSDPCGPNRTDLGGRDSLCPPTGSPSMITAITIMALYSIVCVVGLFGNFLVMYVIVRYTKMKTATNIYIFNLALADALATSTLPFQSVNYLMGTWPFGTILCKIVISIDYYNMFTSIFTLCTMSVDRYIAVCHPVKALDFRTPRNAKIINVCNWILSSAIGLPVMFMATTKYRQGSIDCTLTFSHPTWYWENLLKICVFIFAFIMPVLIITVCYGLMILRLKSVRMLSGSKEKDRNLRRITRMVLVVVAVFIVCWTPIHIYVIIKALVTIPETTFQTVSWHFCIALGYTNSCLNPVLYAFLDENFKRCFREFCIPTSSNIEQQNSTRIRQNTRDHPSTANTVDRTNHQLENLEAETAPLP", "assay": "Opioid receptor function test (Lance Ultra cAMP Kit), μ receptor", "type": "cell-based", "details": "for μ receptor reaction rate at the maximum concentration (reference value, marked *): maximum reaction not reached, maximum concentration 10 μM, DAMGO = 100%; for pEC50: CHO cells expressing human μ receptor, cAMP, in the presence of forskolin, read-out: μ receptor EC50 value; for Emax: ratio to maximum reaction of control drug DAMGO taken as 100%", "method": "(§1) Opioid Receptor Function Test\n(§2) The functional activities of the compounds provided by the present invention on the μ, δ, and κ opioid receptors were investigated.\n(§3) The test was performed by using Lance Ultra cAMP Kit (PerkinElmer) according to a method predetermined for the kit. In the evaluation of the agonistic activity, CHO cells expressing each of the human opioid receptors (δ, μ, and κ, accession numbers and catalog numbers are mentioned below) and 10 μM of each test compound were reacted for 30 minutes in an assay buffer (1× HBSS, […], pH 7.4, […] (isobutylmethylxanthine), 7.5% BSA) in the presence of forskolin. Subsequently, the cAMP detection reagent included in the kit was added, and 1 hour afterward, time-resolved fluorescence measurement was performed by using the EnVision plate reader (PerkinElmer). The test compounds and the control drugs (δ: SNC80, μ: DAMGO, κ: U-69593) were evaluated in a concentration range of 10^−12 to 10^−5 M, a dose-response curve of each test compound was obtained from the fluorescence values at 665 nm, and EC50 value and the Emax value were calculated. The Emax value was calculated as a ratio of the maximum reaction of the test compound to the maximum reaction of each control drug, which is taken as 100%.\n(§4) • δ: Catalog No. CT4607, Accession No. NM_000911.2 • μ: Catalog No. CT4605, Accession No. NM_000914 • κ: Catalog No. CT4606, Accession No. NM_000912 (ChanTest Corporation)"}, "[2]": {"assay": "Metabolic stability test", "type": "in vitro ADME", "details": "liver microsomes; human hepatic microsomes, 0 to 60 minutes; read-out: metabolic clearance CLint", "method": "Human hepatic microsomes and a test substance were reacted for a certain period of time (0 to 60 minutes). The test substance, which was not metabolized in the reaction sample, was measured, and remaining ratio was calculated. The test substance-remaining ratio at the time when the reaction time is 0 hour is taken as 100%. The remaining ratio after incubation was plotted against time as a log-linear plot to obtain a regression line (y=100 e^−kt, k=inclination of straight line: clearance rate constant), and metabolic clearance CLint (mL/min/kg) was calculated by using the following equation. CLint*=k(−min)×52.5(mg MS protein/g liver)×26(g liver/kg)/MS protein (mg MS protein/mL) • *: Davies, B. and Morris T., Physiological parameters in laboratory animals and humans, Pharm. Res., 10(7)1093-1095, 1993 (Test Results)"}, "[3]": {"tested_on": "C57BL/6N male mice", "assay": "Mouse elevated plus maze test", "type": "in vivo", "details": "subcutaneous", "method": "Mouse Elevated Plus Maze Test\nFor the test, 5 to 6 weeks old C57BL/6N male mice were used. On a plus maze apparatus consisting of a wall-less running route (open arm, width 6 cm, length 30 cm) and a running route with a wall (closed arm, width 6 cm, length 30 cm, height of wall 15 cm), and having a height of 40 cm, a mouse was put so as to be directed to the running route with a wall, and allowed to spontaneously enter into the plus maze. Each test substance was dissolved in saline or 0.005 N HCl in saline, and subcutaneously administered on the back 30 minutes before the start of the test. At the time of the start of the test, video recording with a video camera was started, the time at which the mouse entered into the plus maze is considered to be the start of the test, and exploratory behavior was recorded for 5 minutes. On the basis of the video image, staying times in the running routes were determined, and wall-less running route staying time ratio (%) was calculated."}, "[4]": {"molecular_target": "T2, human opioid δ receptor (Homo sapiens, UniProt P41143)", "T2 construct": "host or cells: CHO cells", "T2 sequence (P41143 whole entry)": "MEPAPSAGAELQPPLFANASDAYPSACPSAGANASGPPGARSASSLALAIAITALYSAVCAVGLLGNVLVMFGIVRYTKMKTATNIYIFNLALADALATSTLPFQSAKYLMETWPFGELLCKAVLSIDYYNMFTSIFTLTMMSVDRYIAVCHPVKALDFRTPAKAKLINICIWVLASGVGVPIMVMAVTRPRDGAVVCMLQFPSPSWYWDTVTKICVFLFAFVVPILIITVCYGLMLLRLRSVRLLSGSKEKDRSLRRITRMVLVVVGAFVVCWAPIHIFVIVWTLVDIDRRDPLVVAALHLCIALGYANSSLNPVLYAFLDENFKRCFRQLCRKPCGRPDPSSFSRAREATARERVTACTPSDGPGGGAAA", "assay": "Opioid receptor function test (Lance Ultra cAMP Kit), δ receptor", "type": "cell-based", "details": "for pEC50: CHO cells expressing human δ receptor, cAMP, in the presence of forskolin; for Emax: ratio to maximum reaction of control drug SNC80 taken as 100%", "method": "as §1, §2, §3, §4"}, "[5]": {"molecular_target": "T3, hERG potassium channel (Homo sapiens, UniProt Q12809)", "T3 construct": "host or cells: CHO cells", "T3 sequence (Q12809 whole entry)": "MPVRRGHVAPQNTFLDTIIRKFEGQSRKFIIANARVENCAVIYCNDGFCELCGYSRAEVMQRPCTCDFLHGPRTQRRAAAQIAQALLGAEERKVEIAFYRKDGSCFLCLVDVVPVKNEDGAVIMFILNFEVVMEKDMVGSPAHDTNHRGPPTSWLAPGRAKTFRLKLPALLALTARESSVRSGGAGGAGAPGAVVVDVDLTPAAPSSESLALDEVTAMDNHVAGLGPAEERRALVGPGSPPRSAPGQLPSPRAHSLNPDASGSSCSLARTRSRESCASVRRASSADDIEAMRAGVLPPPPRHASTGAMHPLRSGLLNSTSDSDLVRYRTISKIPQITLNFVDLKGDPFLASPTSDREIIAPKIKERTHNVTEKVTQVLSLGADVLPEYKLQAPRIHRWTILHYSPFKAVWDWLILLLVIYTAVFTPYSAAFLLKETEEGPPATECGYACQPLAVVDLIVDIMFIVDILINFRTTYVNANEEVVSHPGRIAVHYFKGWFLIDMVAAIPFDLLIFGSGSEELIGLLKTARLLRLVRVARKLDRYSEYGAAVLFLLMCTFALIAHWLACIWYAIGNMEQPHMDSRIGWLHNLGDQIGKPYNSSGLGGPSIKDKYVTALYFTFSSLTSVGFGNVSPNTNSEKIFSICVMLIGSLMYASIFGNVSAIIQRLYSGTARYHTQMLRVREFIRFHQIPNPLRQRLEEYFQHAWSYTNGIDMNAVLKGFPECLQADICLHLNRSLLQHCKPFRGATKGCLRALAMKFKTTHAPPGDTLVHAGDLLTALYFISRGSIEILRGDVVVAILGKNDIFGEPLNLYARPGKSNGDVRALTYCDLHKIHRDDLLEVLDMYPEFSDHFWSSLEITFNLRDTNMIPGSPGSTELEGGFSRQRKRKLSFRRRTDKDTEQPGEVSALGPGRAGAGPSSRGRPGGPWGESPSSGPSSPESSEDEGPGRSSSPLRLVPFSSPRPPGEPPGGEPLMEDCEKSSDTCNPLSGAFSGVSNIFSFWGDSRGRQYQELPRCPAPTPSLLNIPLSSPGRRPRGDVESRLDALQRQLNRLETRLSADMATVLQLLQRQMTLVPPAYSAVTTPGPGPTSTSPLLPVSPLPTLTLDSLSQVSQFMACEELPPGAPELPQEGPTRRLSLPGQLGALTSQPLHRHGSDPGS", "assay": "hERG potassium channel inhibition test (automatic patch clamp)", "type": "cell-based", "details": "pH 7.4, hERG-expressing CHO cells, tail current, read-out: hERG channel inhibitory action", "method": "hERG (Human Ether-A-Go-Go-Related Gene) Potassium Channel Inhibition Test\nThe test was performed with Port-a-Patch automatic patch clump apparatus (Nanion Technologies) using hERG channel-stably expressing CHO cells (purchased from Channelopathy Foundation). The membrane potential of the cells was maintained at −80 mV, then there were applied a depolarization pulse at +20 mV for 1.5 seconds, and a following test pulse at −50 mV for 1.5 seconds at a frequency of 1 time per 10 seconds, and the hERG current was confirmed as a tail current induced by the test pulse. The test compound was dissolved in an extracellular fluid (137 mM NaCl, 4 mM KCl, 1.8 mM CaCl2, 1 mM MgCl2, 10 mM D(+)-glucose, 10 mM HEPES, pH 7.4), and the solution was refluxed at room temperature for 5 minutes. The inhibition ratio was obtained from the ratio of the tail current value observed after the compound was applied based on the tail current value observed before the compound was applied, which was taken as 100%."}, "[6]": {"molecular_target": "T4, human opioid κ receptor (Homo sapiens, UniProt P41145)", "T4 construct": "host or cells: CHO cells", "T4 sequence (P41145 whole entry)": "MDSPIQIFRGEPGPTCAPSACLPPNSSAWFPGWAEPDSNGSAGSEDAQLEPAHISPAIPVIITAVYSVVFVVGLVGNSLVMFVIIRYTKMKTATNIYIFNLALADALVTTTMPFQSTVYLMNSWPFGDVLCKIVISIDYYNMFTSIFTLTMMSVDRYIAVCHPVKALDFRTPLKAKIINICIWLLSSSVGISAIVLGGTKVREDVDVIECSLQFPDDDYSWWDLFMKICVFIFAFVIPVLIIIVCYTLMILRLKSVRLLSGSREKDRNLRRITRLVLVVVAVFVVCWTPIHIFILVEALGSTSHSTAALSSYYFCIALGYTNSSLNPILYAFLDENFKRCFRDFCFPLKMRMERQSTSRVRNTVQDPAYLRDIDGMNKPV", "assay": "Opioid receptor function test (Lance Ultra cAMP Kit), κ receptor", "type": "cell-based", "details": "for pEC50: CHO cells expressing human κ receptor, cAMP, in the presence of forskolin; for Emax: ratio to maximum reaction of control drug U-69593 taken as 100%", "method": "as §1, §2, §3, §4"}, "[7]": {"tested_on": "Wistar male rats", "assay": "Rat elevated plus maze test", "type": "in vivo", "details": "oral, 3 mg/kg, 2 hours before test (FIG. 6)", "method": "Rat Elevated Plus Maze Test\nAnxiolytic effects of the compounds provided by the present invention were investigated by the rat elevated plus maze test.\nFor the test, 7 to 9 weeks old Wistar male rats were used. […] Each test substance was dissolved in a 4.5% aqueous solution of cyclodextrin, and orally administered 2 hours before the start of the test. The test data were automatically analyzed by using video image action analysis software (Smart3.0, PanLab S.L., PanLab), and wall-less running route staying time ratio (%) was calculated."}}, "note": "pEC50: −log10 of the molar value. Marks after values point to notes of the source that are not given here.", "data": [{"molecule": "O=C(c1cccc[n+]1[O-])N1C[C@H]2C[C@@]34CC[C@@H]1[C@@H]2[C@@]31CCN(CC2CC2)[C@@H]4Cc2ccc(O)cc21", "note": "[Example 1, 2-((1S,3aR,5aS,6R,11bR,11cS)-14-(cyclopropylmethyl)-10-hydroxy-2,3,3a,4,5,6,7,11c-octahydro-1H-6,11b-(epiminoethano)-1,5a-methanonaphtho[1,2-e]indole-3-carbonyl)pyridine 1-oxide]", "values": [{"measurement": "μ receptor reaction rate at the maximum concentration (reference value, marked *)", "setting": "[1]", "value": "8.3* %"}, {"measurement": "CLint scaled", "setting": "[2]", "value": 19, "unit": "mL/min/kg"}, {"measurement": "wall-less running route staying time ratio", "setting": "[3]; 3 mg/kg, 30 minutes before test (FIG. 1)", "value": "significantly increased"}, {"measurement": "pEC50", "setting": "[4]", "value": "> 8.52"}, {"measurement": "Emax", "setting": "[4]", "value": 88, "unit": "%"}, {"measurement": "inhibition at 5 min, 10 µM", "setting": "[5]", "value": "< 50", "unit": "%"}, {"measurement": "pEC50", "setting": "[6]", "value": "< 9.00"}, {"measurement": "Emax", "setting": "[6]", "value": 12, "unit": "%"}]}, {"molecule": "O=C(c1ccc[nH]c1=O)N1C[C@H]2C[C@@]34CC[C@@H]1[C@@H]2[C@@]31CCN(CC2CC2)[C@@H]4Cc2ccc(O)cc21", "note": "[Example 3, 3-((1S,3aR,5aS,6R,11bR,11cS)-14-(cyclopropylmethyl)-10-hydroxy-2,3,3a,4,5,6,7,11c-octahydro-1H-6,11b-(epiminoethano)-1,5a-methanonaphtho[1,2-e]indole-3-carbonyl)pyridin-2(1H)-one]", "values": [{"measurement": "pEC50", "setting": "[1]", "value": "< 9.00"}, {"measurement": "Emax", "setting": "[1]", "value": 20, "unit": "%"}, {"measurement": "wall-less running route staying time ratio", "setting": "[7]", "value": "significantly increased"}, {"measurement": "wall-less running route staying time ratio", "setting": "[3]; dose not stated (FIGS. 3 to 5)", "value": "tendency of increasing"}, {"measurement": "pEC50", "setting": "[4]", "value": "> 8.52"}, {"measurement": "Emax", "setting": "[4]", "value": 98, "unit": "%"}, {"measurement": "inhibition at 5 min, 10 µM", "setting": "[5]", "value": "< 50", "unit": "%"}, {"measurement": "pEC50", "setting": "[6]", "value": "> 9.00"}, {"measurement": "Emax", "setting": "[6]", "value": 15, "unit": "%"}]}, {"molecule": "Cn1cc(C(=O)N2C[C@H]3C[C@@]45CC[C@@H]2[C@@H]3[C@@]42CCN(CC3CC3)[C@@H]5Cc3ccc(O)cc32)ccc1=O", "note": "[Example 9, 5-((1S,3aR,5aS,6R,11bR,11cS)-14-(cyclopropylmethyl)-10-hydroxy-2,3,3a,4,5,6,7,11c-octahydro-1H-6,11b-(epiminoethano)-1,5a-methanonaphtho[1,2-e]indole-3-carbonyl)-1-methylpyridin-2(1H)-one]", "values": [{"measurement": "pEC50", "setting": "[1]", "value": "> 9.00"}, {"measurement": "Emax", "setting": "[1]", "value": 15, "unit": "%"}, {"measurement": "wall-less running route staying time ratio", "setting": "[3]; dose not stated (FIGS. 3 to 5)", "value": "tendency of increasing"}, {"measurement": "pEC50", "setting": "[4]", "value": "> 8.52"}, {"measurement": "Emax", "setting": "[4]", "value": 74, "unit": "%"}, {"measurement": "inhibition at 5 min, 10 µM", "setting": "[5]", "value": "< 50", "unit": "%"}, {"measurement": "pEC50", "setting": "[6]", "value": "> 9.00"}, {"measurement": "Emax", "setting": "[6]", "value": 14, "unit": "%"}]}, {"molecule": "Cn1c(C(=O)N2C[C@H]3C[C@@]45CC[C@@H]2[C@@H]3[C@@]42CCN(CC3CC3)[C@@H]5Cc3ccc(O)cc32)cccc1=O", "note": "[Example 10, 6-((1S,3aR,5aS,6R,11bR,11cS)-14-(cyclopropylmethyl)-10-hydroxy-2,3,3a,4,5,6,7,11c-octahydro-1H-6,11b-(epiminoethano)-1,5a-methanonaphtho[1,2-e]indole-3-carbonyl)-1-methylpyridin-2(1H)-one]", "values": [{"measurement": "μ receptor reaction rate at the maximum concentration (reference value, marked *)", "setting": "[1]", "value": "6.0* %"}, {"measurement": "CLint scaled", "setting": "[2]", "value": 13, "unit": "mL/min/kg"}, {"measurement": "wall-less running route staying time ratio", "setting": "[7]", "value": "significantly increased"}, {"measurement": "wall-less running route staying time ratio", "setting": "[3]; dose not stated (FIGS. 3 to 5)", "value": "tendency of increasing"}, {"measurement": "pEC50", "setting": "[4]", "value": "> 8.52"}, {"measurement": "Emax", "setting": "[4]", "value": 74, "unit": "%"}, {"measurement": "inhibition at 5 min, 10 µM", "setting": "[5]", "value": "< 50", "unit": "%"}, {"measurement": "κ receptor reaction rate at the maximum concentration (reference value, marked *)", "setting": "[6]; maximum reaction not reached, maximum concentration 10 μM, U-69593 = 100%", "value": "−0.7* %"}]}, {"molecule": "O=C(c1ccc(=O)[nH]n1)N1C[C@H]2C[C@@]34CC[C@@H]1[C@@H]2[C@@]31CCN(CC2CC2)[C@@H]4Cc2ccc(O)cc21", "note": "[Example 16, 6-((1S,3aR,5aS,6R,11bR,11cS)-14-(cyclopropylmethyl)-10-hydroxy-2,3,3a,4,5,6,7,11c-octahydro-1H-6,11b-(epiminoethano)-1,5a-methanonaphtho[1,2-e]indole-3-carbonyl)pyridazin-3(2H)-one]", "values": [{"measurement": "pEC50", "setting": "[1]", "value": "< 9.00"}, {"measurement": "Emax", "setting": "[1]", "value": 19, "unit": "%"}, {"measurement": "CLint scaled", "setting": "[2]", "value": 18, "unit": "mL/min/kg"}, {"measurement": "pEC50", "setting": "[4]", "value": "> 8.52"}, {"measurement": "Emax", "setting": "[4]", "value": 92, "unit": "%"}, {"measurement": "pEC50", "setting": "[6]", "value": "> 9.00"}, {"measurement": "Emax", "setting": "[6]", "value": 29, "unit": "%"}]}]}
